Reference: US12478617B2, “Lipidated peptide inhibitors of interleukin-23 receptor” (JANSSEN BIOTECH, INC., priority 2021, dated 2025)
Starred links: 1 amine or outer side, 2 acyl side, 3 side chain; linkers in the order of their positions; H or OH if unused. Positions of bridges follow the written chain, without caps; N, C: chain ends. Non-standard residues stand in square brackets, D forms with d. Residues, ends and D or L forms follow the SMILES beside them. Groups on a side chain read outwards from the residue. *: point of attachment. Trp(7-Me) = Cc1cccc2c(C[C@H](N)C(=O)O)c[nH]c12; C20 diacid = O=C(O)CCCCCCCCCCCCCCCCCCC(=O)*; C18 diacid = O=C(O)CCCCCCCCCCCCCCCCC(=O)*; C16 diacid = O=C(O)CCCCCCCCCCCCCCC(=O)*; γGlu = O=C(O)[C@H](CCC(=O)[*:2])N[*:1]; 2Nal = N[C@@H](Cc1ccc2ccccc2c1)C(=O)O; AEF = NCCOc1ccc(C[C@H](N)C(=O)O)cc1; PEG6 = NCCOCCOCCOCCOCCOCCOCCC(=O)O; Palmitoyl = CCCCCCCCCCCCCCCC(=O)*; Trx = NC[C@H]1CC[C@H](C(=O)O)CC1; 3Pal = N[C@@H](Cc1cccnc1)C(=O)O; Pen = CC(C)(S)[C@H](N)C(=O)O; Thp = NC1(C(=O)O)CCOCC1; AEEA = NCCOCCOCC(=O)O; Sar = CNCC(=O)O

Target: T1, IL-23R (Homo sapiens, UniProt Q5VWK5)
T1 construct: HEK293 cells containing IL-23R, IL-12RP31 and a firefly luciferase reporter gene driven by a STAT-inducible promoter (Promega); host or cells: HEK293
T1 sequence (Q5VWK5 24-629): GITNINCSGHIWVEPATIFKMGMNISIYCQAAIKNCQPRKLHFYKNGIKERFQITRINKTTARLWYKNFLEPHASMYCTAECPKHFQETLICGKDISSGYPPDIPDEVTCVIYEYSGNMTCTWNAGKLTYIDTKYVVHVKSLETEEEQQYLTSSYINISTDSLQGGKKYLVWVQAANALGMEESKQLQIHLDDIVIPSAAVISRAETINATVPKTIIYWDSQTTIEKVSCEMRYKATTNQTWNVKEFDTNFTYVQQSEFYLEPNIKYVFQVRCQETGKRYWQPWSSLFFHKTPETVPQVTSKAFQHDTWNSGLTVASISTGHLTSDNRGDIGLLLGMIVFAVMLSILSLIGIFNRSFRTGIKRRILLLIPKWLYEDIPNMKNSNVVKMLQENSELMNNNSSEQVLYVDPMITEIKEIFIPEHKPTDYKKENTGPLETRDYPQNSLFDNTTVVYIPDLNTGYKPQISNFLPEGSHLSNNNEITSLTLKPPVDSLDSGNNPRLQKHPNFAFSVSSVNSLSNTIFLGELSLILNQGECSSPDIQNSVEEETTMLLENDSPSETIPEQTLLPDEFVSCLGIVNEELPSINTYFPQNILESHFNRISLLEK
Assay: IL23R Reporter Assay
Assay type: cell-based
Outline: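 Luminescence from BioGlo, read after cells were moved to 20 °C, followed a 5 h incubation at 37 °C, 5% CO2 with DMSO-diluted test compounds.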

| Structure (SMILES) | IC50 |
| --- | --- |
| CC(=O)NCCCC[C@@H]1NC(=O)[C@H](Cc2c[nH]c3c(C)cccc23)NC(=O)[C@H]([C@@H](C)O)NC(=O)[C@H](CC(N)=O)NC(=O)[C@@H](NC(C)=O)C(C)(C)SSC(C)(C)[C@@H](C(=O)N[C@@H](Cc2ccc(OCCN)cc2)C(=O)N[C@@H](Cc2ccc3ccccc3c2)C(=O)NC2(C(=O)N[C@@H](CCCCNC(=O)COCCOCCNC(=O)COCCOCCNC(=O)CC[C@H](NC(=O)[C@H]3CC[C@H](CNC(=O)CCCCCCCCCCCCCCCCCCC(=O)O)CC3)C(=O)O)C(=O)N[C@@H](CC(N)=O)C(=O)N[C@@H](Cc3cccnc3)C(=O)N(C)CC(N)=O)CCOCC2)NC1=O [Example 128, MeCO-Pen*-N-T-7MeW-K(Ac)-Pen*-AEF-2Nal-THP-K(PEG2PEG2gETrxC20OH)-N-3Pya-Sar-CONH2] (Ac-[Pen]NT[Trp(7-Me)]K(Ac)[Pen][AEF][2Nal][Thp]K([AEEA-AEEA-γGlu-Trx-C20 diacid])N[3Pal][Sar]-NH2; disulfide 1-6) | 100 pM |
| CC(=O)NCCCC[C@@H]1NC(=O)[C@H](Cc2c[nH]c3c(C)cccc23)NC(=O)[C@H]([C@@H](C)O)NC(=O)[C@H](CC(N)=O)NC(=O)[C@@H](NC(=O)[C@@H](CCCNC(=N)N)NC(C)=O)C(C)(C)SSC(C)(C)[C@@H](C(=O)N[C@@H](Cc2ccc(OCCN)cc2)C(=O)N[C@@H](Cc2ccc3ccccc3c2)C(=O)NC2(C(=O)N[C@@H](CCC(=O)O)C(=O)N[C@@H](CC(N)=O)C(=O)N[C@@H](Cc3cccnc3)C(=O)N(C)CC(=O)N[C@@H](CCCCNC(=O)COCCOCCNC(=O)COCCOCCNC(=O)CC[C@H](NC(=O)CCCCCCCCCCCCCCC(=O)O)C(=O)O)C(N)=O)CCOCC2)NC1=O [Example 17, MeCO-r-Pen*-N-T-7MeW-K(Ac)-Pen*-AEF-2Nal-THP-E-N-3Pya-Sar-K(PEG2PEG2gEC16OH)-CONH2] (Ac-[dR][Pen]NT[Trp(7-Me)]K(Ac)[Pen][AEF][2Nal][Thp]EN[3Pal][Sar]K([AEEA-AEEA-γGlu-C16 diacid])-NH2; disulfide 2-7) | 36 pM |
| CC(=O)NCCCC[C@@H]1NC(=O)[C@H](Cc2c[nH]c3c(C)cccc23)NC(=O)[C@H]([C@@H](C)O)NC(=O)[C@H](CCCCNC(=O)COCCOCCNC(=O)COCCOCCNC(=O)[C@@H]2CCCN2C(=O)CC[C@H](NC(=O)CCCCCCCCCCCCCCCCC(=O)O)C(=O)O)NC(=O)[C@@H](NC(=O)[C@@H](CCCNC(=N)N)NC(C)=O)C(C)(C)SSC(C)(C)[C@@H](C(=O)N[C@@H](Cc2ccc(OCCN)cc2)C(=O)N[C@@H](Cc2ccc3ccccc3c2)C(=O)NC2(C(=O)N[C@@H](CCCCNC(C)=O)C(=O)N[C@@H](CC(N)=O)C(=O)N[C@@H](Cc3cccnc3)C(=O)N(C)CC(N)=O)CCOCC2)NC1=O [Example 95, MeCO-r-Pen*-K(PEG2PEG2PgEC18OH)-T-7MeW-K(Ac)-Pen*-AEF-2Nal-THP-K(Ac)-N-3Pya-Sar-CONH2] (Ac-[dR][Pen]K([AEEA-AEEA-Pro-γGlu-C18 diacid])T[Trp(7-Me)]K(Ac)[Pen][AEF][2Nal][Thp]K(Ac)N[3Pal][Sar]-NH2; disulfide 2-7) | 140 pM |
| CC(=O)NCCCC[C@@H]1NC(=O)[C@H](Cc2c[nH]c3c(C)cccc23)NC(=O)[C@H]([C@@H](C)O)NC(=O)[C@H](CC(N)=O)NC(=O)[C@@H](NC(C)=O)C(C)(C)SSC(C)(C)[C@@H](C(=O)N[C@@H](Cc2ccc(OCCN)cc2)C(=O)N[C@@H](Cc2ccc3ccccc3c2)C(=O)NC2(C(=O)N[C@@H](CCCCNC(=O)COCCOCCNC(=O)COCCOCCNC(=O)[C@@H]3CCCN3C(=O)[C@@H]3CCCN3C(=O)[C@@H]3CCCN3C(=O)CC[C@H](NC(=O)CCCCCCCCCCCCCCCCC(=O)O)C(=O)O)C(=O)N[C@@H](CC(N)=O)C(=O)N[C@@H](Cc3cccnc3)C(=O)N(C)CC(N)=O)CCOCC2)NC1=O [Example 107, MeCO-Pen*-N-T-7MeW-K(Ac)-Pen*-AEF-2Nal-THP-K(PEG2PEG2PPPgEC18OH)-N-3Pya-Sar-CONH2] | 90 pM |
| CCCCCCCCCCCCCCCC(=O)N[C@@H](CCC(=O)NCCCC[C@@H]1NC(=O)[C@@H](NC(=O)[C@@H](CCCNC(=N)N)NC(C)=O)C(C)(C)SSC(C)(C)[C@@H](C(=O)N[C@@H](Cc2ccc(OCCN)cc2)C(=O)N[C@@H](Cc2ccc3ccccc3c2)C(=O)NC2(C(=O)N[C@@H](CCCCNC(C)=O)C(=O)N[C@@H](CC(N)=O)C(=O)N[C@@H](Cc3cccnc3)C(=O)N(C)CC(N)=O)CCOCC2)NC(=O)[C@H](CCCCNC(C)=O)NC(=O)[C@H](Cc2c[nH]c3c(C)cccc23)NC(=O)[C@H]([C@@H](C)O)NC1=O)C(=O)O [Example 69, MeCO-r-Pen*-K(gEC16)-T-7MeW-K(Ac)-Pen*-AEF-2Nal-THP-K(Ac)-N-3Pya-Sar-CONH2] (Ac-[dR][Pen]K([γGlu-Palmitoyl])T[Trp(7-Me)]K(Ac)[Pen][AEF][2Nal][Thp]K(Ac)N[3Pal][Sar]-NH2; disulfide 2-7) | 130 pM |
| CC(=O)NCCCC[C@@H]1NC(=O)[C@H](Cc2c[nH]c3c(C)cccc23)NC(=O)[C@H]([C@@H](C)O)NC(=O)[C@H](CC(N)=O)NC(=O)[C@@H](NC(C)=O)C(C)(C)SSC(C)(C)[C@@H](C(=O)N[C@@H](Cc2ccc(OCCN)cc2)C(=O)N[C@@H](Cc2ccc3ccccc3c2)C(=O)NC2(C(=O)N[C@@H](CCCCNC(=O)CC[C@H](NC(=O)CCCCCCCCCCCCCCC(=O)O)C(=O)O)C(=O)N[C@@H](CC(N)=O)C(=O)N[C@@H](Cc3cccnc3)C(=O)N(C)CC(N)=O)CCOCC2)NC1=O [Example 29, MeCO-Pen*-N-T-7MeW-K(Ac)-Pen*-AEF-2Nal-THP-K(gEC16OH)-N-3Pya-Sar-CONH2] (Ac-[Pen]NT[Trp(7-Me)]K(Ac)[Pen][AEF][2Nal][Thp]K([γGlu-C16 diacid])N[3Pal][Sar]-NH2; disulfide 1-6) | 60 pM |
| CC(=O)NCCCC[C@@H]1NC(=O)[C@H](Cc2c[nH]c3c(C)cccc23)NC(=O)[C@H]([C@@H](C)O)NC(=O)[C@H](CC(N)=O)NC(=O)[C@@H](NC(C)=O)C(C)(C)SSC(C)(C)[C@@H](C(=O)N[C@@H](Cc2ccc(OCCN)cc2)C(=O)N[C@@H](Cc2ccc3ccccc3c2)C(=O)NC2(C(=O)N[C@@H](CCCCNC(=O)CCOCCOCCOCCOCCOCCOCCNC(=O)CCOCCOCCOCCOCCOCCOCCNC(=O)CC[C@H](NC(=O)CCCCCCCCCCCCCCC(=O)O)C(=O)O)C(=O)N[C@@H](CC(N)=O)C(=O)N[C@@H](Cc3cccnc3)C(=O)N(C)CC(N)=O)CCOCC2)NC1=O [Example 42, MeCO-Pen*-N-T-7MeW-K(Ac)-Pen*-AEF-2Nal-THP-K(PEG6PEG6gEC16OH)-N-3Pya-Sar-CONH2] (Ac-[Pen]NT[Trp(7-Me)]K(Ac)[Pen][AEF][2Nal][Thp]K([PEG6-PEG6-γGlu-C16 diacid])N[3Pal][Sar]-NH2; disulfide 1-6) | 29 pM |
| CC(=O)NCCCC[C@@H]1NC(=O)[C@H](Cc2c[nH]c3c(C)cccc23)NC(=O)[C@H]([C@@H](C)O)NC(=O)[C@H](CCCCNC(=O)COCCOCCNC(=O)COCCOCCNC(=O)CC[C@H](NC(=O)CCCCCCCCCCCCCCCCC(=O)O)C(=O)O)NC(=O)[C@@H](NC(C)=O)C(C)(C)SSC(C)(C)[C@@H](C(=O)N[C@@H](Cc2ccc(OCCN)cc2)C(=O)N[C@@H](Cc2ccc3ccccc3c2)C(=O)NC2(C(=O)N[C@@H](CCCCNC(C)=O)C(=O)N[C@@H](CC(N)=O)C(=O)N[C@@H](Cc3cccnc3)C(=O)N(C)CC(N)=O)CCOCC2)NC1=O [Example 122, MeCO-Pen*-K(PEG2PEG2gEC18OH)-T-7MeW-K(Ac)-Pen*-AEF-2Nal-THP-K(Ac)-N-3Pya-Sar-CONH2] (Ac-[Pen]K([AEEA-AEEA-γGlu-C18 diacid])T[Trp(7-Me)]K(Ac)[Pen][AEF][2Nal][Thp]K(Ac)N[3Pal][Sar]-NH2; disulfide 1-6) | 83 pM |
